Experimental data taken from publication PMC8400955 (Pharmaceuticals, 2021).
Where two headings read alike, the source gives them in different places.

Assays:
[1] = tested on: CYP2B6; experiment: CYP induction (enzyme activity) in cryopreserved human hepatocytes, CYP2B6; conditions: for fold induction at 72 h, 1000 µM / fold induction at 72 h, 30 µM: human, plated cryopreserved human hepatocytes; for Percent of Control / fold induction at 72 h, 30 µM: 30 µM
Procedure: (§1) The UPLC–MS/MS (SHIMADZU, LC-30AD) equipped with waters Xselect®HSS T3 2.5 μm (2.1 × 50 mm) was used to detect the marker metabolites in the enzyme activity assay. The fold-induction enzyme activity was determined using the ratio calculation (the calculation details are available in the Supplementary Materials).
(§2) CYP activity was expressed as pmol/min/million cells where pmol was defined as the amount of metabolite formed during the reaction. […] The fold-induction enzyme activity was determined by the ratio:
(§3) Fold of induction = CYP activity(induced) / CYP activity(vehicle)
(§4) % of positive control = (𝑪𝒀𝑷 𝒂𝒄𝒕𝒊𝒗𝒊𝒕𝒚(𝒊𝒏𝒅𝒖𝒄𝒆𝒅)ି 𝑪𝒀𝑷 𝒂𝒄𝒕𝒊𝒗𝒊𝒕𝒚(𝑫𝑴𝑺𝑶))(𝑪𝒀𝑷 𝒂𝒄𝒕𝒊𝒗𝒊𝒕𝒚(𝒑𝒐𝒔𝒊𝒕𝒊𝒗𝒆 𝒄𝒐𝒏𝒕𝒓𝒐𝒍)ି 𝑪𝒀𝑷 𝒂𝒄𝒕𝒊𝒗𝒊𝒕𝒚(𝑫𝑴𝑺𝑶))х 𝟏𝟎𝟎 Based on the enzyme activity, a minimum of 2-fold increase of a response compared to vehicle control and ≥ 20% of the positive control was considered as the cutoff for a positive signal in in vitro induction

[2] = Bidirectional permeability across Caco-2 cell monolayers; type: in vitro ADME; conditions: human; for recovery at 120 min, 5 μM: Caco-2, Caco-2, 5 μM; for Papp A→B at 120 min, 5 μM / Papp B→A at 120 min, 5 μM / efflux ratio at 120 min, 5 μM: Caco-2, 5 μM
Procedure: The bidirectional permeability and absorption mechanism of ZB716 was evaluated across Caco-2 cell monolayers.
The apical-to-basolateral (A–B) and basolateral-to-apical (B–A) transport of ZB716 in HBSS (25 mM HEPES) with 1% BSA was measured across Caco-2 cell monolayers. […] All incubations were performed in triplicate, and the integrity of the cell monolayers was confirmed using the marker Lucifer yellow.
The slope, k, was determined by linear
using the following equation: […]
1.4 Intestinal Mucosal Permeation of ZB716
Papp= VAArea х timeх ሾdrugሿreceiverሾdrugሿinitial,donor

[3] = tested on: CYP1A2; experiment: CYP induction (enzyme activity) in cryopreserved human hepatocytes, CYP1A2; conditions: for fold induction at 72 h, 50 µM / fold induction at 72 h, 30 µM: human, plated cryopreserved human hepatocytes; for Percent of Control / fold induction at 72 h, 30 µM: 30 µM
Procedure: as §1, §2, §3, §4

[4] = tested on: CYP3A4; experiment: CYP induction (enzyme activity) in cryopreserved human hepatocytes, CYP3A4; type: in vitro ADME; conditions: 30 µM; for fold induction at 72 h, 30 µM: human, plated cryopreserved human hepatocytes

## CCC1(c2ccccc2)C(=O)NC(=O)NC1=O [Phenobarbital, phenobarbital, reference compound]
[1]; donor one
  fold induction at 72 h, 1000 µM: 5.44 ± 0.13
[1]; donor three
  fold induction at 72 h, 1000 µM: 6.29 ± 0.9
[1]; donor two
  fold induction at 72 h, 1000 µM: 6.86 ± 0.36

## C[C@H]1O[C@@H](O[C@H]2[C@@H](O)C[C@H](O[C@H]3[C@@H](O)C[C@H](O[C@H]4CC[C@@]5(C)[C@H](CC[C@@H]6[C@@H]5C[C@@H](O)[C@]5(C)[C@@H](C7=CC(=O)OC7)CC[C@]65O)C4)O[C@@H]3C)O[C@@H]2C)C[C@H](O)[C@@H]1O [Digoxin, digoxin, reference compound]
[2]; read-out: Recovery A to B
  recovery at 120 min, 5 μM: 92.4 ± 1%
[2]; read-out: Recovery B to A
  recovery at 120 min, 5 μM: 86 ± 6%
[2]
  Papp A→B at 120 min, 5 μM: 0.687 ± 0.088 ×10⁻⁶ cm/s
  Papp B→A at 120 min, 5 μM: 14.5 ± 1.68 ×10⁻⁶ cm/s
  efflux ratio at 120 min, 5 μM: 21.2 ± 2

## COc1ccc2[nH]c([S+]([O-])Cc3ncc(C)c(OC)c3C)nc2c1 (stereo not shown) [Omeprazole, omeprazole, reference compound]
[3]; donor one
  fold induction at 72 h, 50 µM: 9.28 ± 0.223
[3]; donor three
  fold induction at 72 h, 50 µM: 6.37 ± 0.14
[3]; donor two
  fold induction at 72 h, 50 µM: 15 ± 1.8

## CCOC(=O)c1ncn2c1CN(C)C(=O)c1cc(F)ccc1-2 [Flumazenil, flumazenil, reference compound]
[4]; donor one
  Percent of Control: 1.16%
  fold induction at 72 h, 30 µM: 1.06 ± 0.09
[4]; donor three
  Percent of Control: 3.11%
  fold induction at 72 h, 30 µM: 1.23 ± 0.09
[4]; donor two
  Percent of Control: 4.37%
  fold induction at 72 h, 30 µM: 1.39 ± 0.04
[3]; donor one
  Percent of Control: −2.20%
  fold induction at 72 h, 30 µM: 0.818 ± 0.032
[3]; donor three
  Percent of Control: −3.60%
  fold induction at 72 h, 30 µM: 0.807 ± 0.177
[3]; donor two
  Percent of Control: 0.450%
  fold induction at 72 h, 30 µM: 1.06 ± 0.11
[1]; donor one
  Percent of Control: 3.77%
  fold induction at 72 h, 30 µM: 1.17 ± 0.04
[1]; donor three
  Percent of Control: 5.23%
  fold induction at 72 h, 30 µM: 1.28 ± 0.2
[1]; donor two
  Percent of Control: −3.61%
  fold induction at 72 h, 30 µM: 0.789 ± 0.07

## Nc1cc(N2CCCCC2)nc(N)[n+]1[O-] [Minoxidil, minoxidil, reference compound]
[2]; read-out: Recovery A to B
  recovery at 120 min, 5 μM: 91 ± 1.4%
[2]; read-out: Recovery B to A
  recovery at 120 min, 5 μM: 94.4 ± 48%
[2]
  Papp A→B at 120 min, 5 μM: 6.47 ± 0.22 ×10⁻⁶ cm/s
  Papp B→A at 120 min, 5 μM: 7.44 ± 0.47 ×10⁻⁶ cm/s
  efflux ratio at 120 min, 5 μM: 1.15 ± 0.09
